These are literature values, as cited in patent publication US11877998B2, “Supplement composition” (H & H SCIENCE, LLC, priority 2017, dated 2024).

One data set has as its system hair growth. The following applies: men taking supplements.
In data set [1] the test system is retinol-binding proteins (RBPs). The following applies: acne patients, oral, after four weeks.
A further data set has as its system nonmelanoma skin cancer. The note with it: oral, high risk group.

For the compound vitamin E, in the data set on hair growth, the “hair growth versus placebo” value is given as “grew more hair”. For the compound vitamin A [oral vitamin A], the “serum levels of retinol-binding proteins (RBPs)” value in data set [1] is reported as “not observed”. Take `O=C(O)c1cccnc1` [oral niacin, niacin]: the “reduction of nonmelanoma skin cancer” value in the data set on nonmelanoma skin cancer is on record as “by a quarter”. As for `[Zn]` [zinc], in data set [1], the “serum levels of retinol-binding proteins (RBPs)” value is reported as “not observed”.
